Where two headings read alike, the source gives them in different places.
Columns and labels:
T. cruzi amastigotes = settings: cited from earlier work
[1] = test system: Trypanosoma cruzi intracellular amastigotes; test: Activity against intracellular amastigotes of T. cruzi in infected peritoneal macrophages (EC50); format: cell-based, Trypanosoma cruzi (Y strain); settings: for EC50: Trypanosoma cruzi, Peritoneal macrophage, in Mus musculus, read-out: EC50 ± SD; for EC50 / EC50 ± SD: 48 h; for SI (selectivity index): ratio CC50 against NCTC cells/EC50 against amastigote forms
Experimental: Trypanosoma cruzi trypomastigotes (Y strain) were routinely maintained in Rhesus monkey kidney cells (LLC-MK2 –ATCC CCL 7), using RPMI-1640 medium supplemented with 2% FBS at 37°C in a 5% CO2-humidified incubator. The murine conjunctive cells (NCTC clone 929, ATCC) were maintained in RPMI-1640 medium supplemented with 10% FBS at 37°C in a 5% CO2 –humidified incubator. Peritoneal macrophages, used for the amastigote assays, were obtained by washing the peritoneal cavity of BALB/c mice with RPMI-1640 medium supplemented with 10% FBS and were kept at 37°C in a 5% CO2-humidified incubator. To evaluate the activity against intracellular amastigotes, the peritoneal macrophages obtained from BALB/c mice were infected with trypomastigotes forms of T. cruzi. The macrophages were plated on a 16-well chamber slide (NUNC plate, Merck; 1 x 10^5/well) and incubated for 24 h at 37°C in a 5% CO2-humidified incubator. […] After 2 h of incubation at 37°C in a 5% CO2-humidified incubator, the non-internalized parasites were removed by washing with RPMI-1640 medium. Compounds 1–12 and 7a-7e were incubated by serial dilution (100–1.56 μM) with the infected macrophages (48 h at 37°C, 5% CO2) using benznidazole as the standard drug. At the end of the assay, slides were fixed with MeOH and stained with Giemsa prior to counting under a light microscope (EVOS M5000, THERMO). The EC50 values were calculated as previously described. EC50 and CC50 data represent the mean of two independent representative assays tested in duplicate and were calculated using sigmoid dose-response curves with Graph–Pad Prism 6.0 software (San Diego, CA, USA).

[2] = Cytotoxicity against mammalian cells, MTT assay (CC50); format: cell-based, murine; settings: mouse
Experimental: Trypanosoma cruzi trypomastigotes (Y strain) were routinely maintained in Rhesus monkey kidney cells (LLC-MK2 –ATCC CCL 7), using RPMI-1640 medium supplemented with 2% FBS at 37°C in a 5% CO2-humidified incubator. The murine conjunctive cells (NCTC clone 929, ATCC) were maintained in RPMI-1640 medium supplemented with 10% FBS at 37°C in a 5% CO2 –humidified incubator. Peritoneal macrophages, used for the amastigote assays, were obtained by washing the peritoneal cavity of BALB/c mice with RPMI-1640 medium supplemented with 10% FBS and were kept at 37°C in a 5% CO2-humidified incubator.
The cytotoxicity assays were performed using NCTC cells-clone 929. The cells were counted, seeded (6 x 10^4 cells/well), and incubated with compounds 1–12 and 7a- 7e (200–1.56 μM—serial dilution) for 48 h at 37°C in a 5% CO2-humidified incubator. The optical density was determined using a FilterMax F5 (Molecular Devices) at 570 nm. The 50% cytotoxic concentration (CC50) values were determined by MTT assay. Selectivity index (SI) values were calculated using the ratio: CC50 against NCTC cells/EC50 against parasites form (amastigotes).
EC50 and CC50 data represent the mean of two independent representative assays tested in duplicate and were calculated using sigmoid dose-response curves with Graph–Pad Prism 6.0 software (San Diego, CA, USA).

mammalian cells = test system: mammalian cells; design: method as in PMID 31132603; settings: cytotoxicity, previous work; cited from earlier work
[3] = intracellular amastigote forms of T. cruzi in BALB/c peritoneal macrophages, 100–1.56 μM
[4] = NCTC clone 929 cells, 48 h, MTT, 200–1.56 μM, read-out: CC50

Row | Compound | EC50 [1, 3] | SI (selectivity index) [1] | CC50 at 48 h [2, 4] | also measured
1 | Isolinderanolide D | – | – | – | EC50 (T. cruzi amastigotes; amastigote forms of T. cruzi): 25.3 µM
2 | C=C1OC(=O)/C(=C\CCCCCCCCCCCCCCC)[C@H]1O [isolinderanolide E] | – | – | – | EC50 (T. cruzi amastigotes; amastigote forms of T. cruzi): 10.1 µM
3 | CC1(C)CC(O)CC(C)(O)/C1=C\C(=O)O (stereo not drawn) [Compound 4, 2Z-(2,4-dihydroxy-2,6,6-trimethylcyclohexylidene)acetic acid] | 28.2 ± 2.9 µM | > 7.1 | – | CC50 at 48 h [2]: > 200 µM
4 | O=C(O)CCCCCCCC(=O)O [Compound 5, azelaic acid] | > 100 µM | – | > 200 µM | –
5 | O=Cc1c[nH]c2ccccc12 [Compound 2, indole-3-aldehyde] | > 100 µM | – | – | CC50 at 48 h [2]: > 200 µM
6 | CCOC(=O)C1CCC(=O)N1 (stereo in doubt) [Compound 1, ethyl (R)-pyroglutamate] | > 100 µM | – | > 200 µM | –
7 | CC1=CC(=O)CC(C)(C)[C@@]1(O)/C=C/C(C)=C\C(=O)O [Compound 3, (+)-(S)-abscisic acid] | – | – | > 200 µM | EC50 [1]: > 100 µM
8 | COc1cc([C@H]2O[C@@H](c3ccc(O)c(OC)c3)[C@H](C)[C@@H]2C)ccc1O [Compound 12, nectandrin B] | 31 ± 0.3 µM | > 6.4 | > 200 µM | –
9 | COc1cc(/C=C/C(=O)NCCc2ccc(O)cc2)ccc1O [Compound 10, moupinamide] | > 100 µM | – | > 200 µM | –
10 | CCCCCOC(=O)c1ccc(O)c(O)c1 [Compound 7d] | 12.3 ± 3.8 µM | > 16.3 | > 200 µM | –
11 | COc1cc(C(=O)[C@H](CO)c2ccc(O)c(OC)c2)ccc1O [Compound 9, (-)-evofolin B] | 27.8 ± 0.2 µM | > 7.2 | > 200 µM | –
12 | COc1cc(C2OC(c3ccc(O)c(OC)c3)C(C)C2C)ccc1O (stereo not drawn) [Compound 11, verrucosin] | 36.8 ± 4.9 µM | > 5.4 | > 200 µM | –
13 | CCCCCCCCOC(=O)c1ccc(O)c(OC)c1 [n-octyl ester of vanillic acid] | – | – | – | EC50 (T. cruzi amastigotes; T. cruzi amastigotes): 6.8 µM
14 | CCCCOC(=O)c1ccc(O)c(O)c1 [Compound 7c] | 19.4 ± 6.3 µM | > 10.3 | > 200 µM | –
15 | CCCOC(=O)c1ccc(O)c(O)c1 [Compound 7b] | 20.4 ± 4.2 µM | > 9.8 | > 200 µM | –
16 | O=C(O)c1ccc(O)c(O)c1 [protocatechuic acid, reference compound] | – | – | > 200 µM | EC50 [1]: > 100 µM; EC50 ± SD [1, 3]: inactive
17 | COC(=O)c1ccc(O)c(O)c1 [Compound 7a] | > 100 µM | – | > 200 µM | EC50 ± SD [1, 3]: inactive
18 | CCCCCCOC(=O)c1ccc(O)c(O)c1 [Compound 7e] | 11.7 ± 2.7 µM | > 17.1 | > 200 µM | –
19 | CCOC(=O)c1ccc(O)c(O)c1 [Compound 7, ethyl protocatechuate] | 18.1 ± 0.3 µM | – | > 200 µM | –
20 | COc1cc2ccc(=O)oc2cc1O [Compound 8, scopoletin] | > 100 µM | – | > 200 µM | –
21 | O=C(Cn1ccnc1[N+](=O)[O-])NCc1ccccc1 [Benznidazole, benznidazole, reference compound] | 18.7 ± 4.1 µM | > 10.7 | > 200 µM | –
22 | COc1cc(C(=O)O)ccc1O [Compound 6, vanillic acid] | > 100 µM | – | > 200 µM | –
23 | CCCCCCCCOC(=O)c1ccc(O)c(O)c1 [n-octyl ester of protocatechuic acid] | – | – | – | EC50 (T. cruzi amastigotes; T. cruzi amastigotes): 13.9 µM; CC50 (mammalian cells): 108 µM
